Source: ChEMBL document CHEMBL3352183, “Borrelidin B: isolation, biological activity, and implications for nitrile biosynthesis” (J Nat Prod, 2014)
Activity calls are given as the source filed them. No cut-off for these calls is given here.

Legend:
[1] = system: HeLa; assay: Mitotic arrest in human HeLa cells assessed as accumulation at […] at 0.98 to 30 uM using pHH3 staining-based fluorescent assay; format: functional, cell-based
[2] = molecular target: T1, Threonine--tRNA ligase, mitochondrial (Homo sapiens) (UniProt Q9BW92); assay: Inhibition of threonyl tRNA synthetase (unknown origin) assessed as depletion of tRNAs at 50 uM by SToPs assay
T1 sequence (whole entry): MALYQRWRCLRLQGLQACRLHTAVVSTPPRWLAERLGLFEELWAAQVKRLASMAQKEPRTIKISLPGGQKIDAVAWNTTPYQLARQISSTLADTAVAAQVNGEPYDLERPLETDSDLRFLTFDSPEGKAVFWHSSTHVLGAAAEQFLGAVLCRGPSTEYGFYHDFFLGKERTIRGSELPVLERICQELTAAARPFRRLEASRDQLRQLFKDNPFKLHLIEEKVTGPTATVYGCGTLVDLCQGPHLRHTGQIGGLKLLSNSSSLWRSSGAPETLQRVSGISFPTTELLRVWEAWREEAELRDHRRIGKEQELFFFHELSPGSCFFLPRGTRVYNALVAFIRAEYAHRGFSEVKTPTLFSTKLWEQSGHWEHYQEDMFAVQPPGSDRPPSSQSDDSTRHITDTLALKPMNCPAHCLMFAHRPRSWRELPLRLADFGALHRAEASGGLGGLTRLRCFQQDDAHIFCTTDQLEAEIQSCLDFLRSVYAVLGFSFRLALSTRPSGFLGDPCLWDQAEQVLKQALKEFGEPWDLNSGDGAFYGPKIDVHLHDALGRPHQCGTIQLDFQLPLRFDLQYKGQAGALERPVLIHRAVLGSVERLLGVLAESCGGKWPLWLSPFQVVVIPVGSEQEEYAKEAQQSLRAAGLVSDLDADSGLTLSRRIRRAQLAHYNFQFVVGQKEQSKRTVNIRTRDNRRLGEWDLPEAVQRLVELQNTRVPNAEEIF

[3] = system: MDA-MB-361; assay: Growth inhibition of human MDA-MB-361 cells; format: functional, cell-based
[4] = system: NCI-N87; assay: Growth inhibition of human NCI-N87 cells; format: functional, cell-based
[5] = system: HT-29; assay: Growth inhibition of human HT-29 cells; format: functional, cell-based

| inhibition [2] | SMILES | Activity [1] | IC50 [3] | IC50 [4] | IC50 [5] |
| --- | --- | --- | --- | --- | --- |
| inactive | CC(=O)NC/C1=C/C=C/C[C@@H]([C@@H]2CCC[C@H]2C(=O)O)OC(=O)C[C@H](O)[C@@H](C)C[C@@H](C)C[C@@H](C)C[C@H](C)[C@H]1O | inactive |  |  |  |
|  | C[C@@H]1C[C@H](C)C[C@H](C)[C@@H](O)CC(=O)O[C@H]([C@@H]2CCC[C@H]2C(=O)O)C/C=C/C=C(/C#N)[C@H](O)[C@@H](C)C1 [BORRELIDIN] |  | 420 nM | 50 nM | 920 nM |
| Active | C[C@@H]1C[C@H](C)C[C@H](C)[C@@H](O)CC(=O)O[C@H]([C@@H]2CCC[C@H]2C(=O)O)C/C=C/C=C(/CN)[C@H](O)[C@@H](C)C1 | Dose-dependent effect | 2200 nM | 1300 nM | 2000 nM |
